Results as given in patent US6956113B2 (priority 2000, dated 2005).

System: bioluminescent Salmonella tester strains (his- cells)

For `[N-]=[N+]=[N-]` [NaN, sodium azide], the “bioluminescent revertants after independent exposure (mutagenicity)” value was “detection of bioluminescent revertants”.
